Test results from patent US20160257697A1, “THIOPHENE-SUBSTITUTED TETRACYCLIC COMPOUNDS AND METHODS OFUSE THEREOF FOR THE TREATMENT OF VIRAL DISEASES” (priority 2013, published 2016).
Like-named read-outs stand apart in the source and are kept apart here.

How the values were obtained:
Assay in all cases: microbe, parasite or virus in culture
Type in all cases: cell-based, Hepatitis C virus (HCV)
HCV replicon 1AQ30D = conditions: Replicon Assay B
HCV replicon 1B = conditions: Replicon Assay B
HCV replicon 2B = conditions: Replicon Assay A
Method in brief: (§1)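 HCV RNA levels were calculated from Ct values (minus intercept, divided by slope) of a Neo primer/probe standard curve, with cyclophilin quantified the same way. Cells were seeded at 2000/well and incubated with compound for 3 days in 5% serum and 0.5% DMSO.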

HCV replicon 1A = conditions: Replicon Assay A
Method in brief: as §1

HCV replicon 1AY93H = conditions: Replicon Assay A
Method in brief: as §1

[1] = HCV replicon 1A Q30D, read-out: 1A Q30D IC50
[2] = HCV replicon 2B, read-out: 2B IC50
[3] = HCV replicon 1A Y93H, read-out: 1A Y93H IC50
[4] = Hepatitis C virus, read-out: 1A Q30D IC50 (nM), replicon 1AQ30D
[5] = Hepatitis C virus, read-out: 2B IC50 (nM), replicon 2B
[6] = Hepatitis C virus, read-out: 1A Y93H IC50 (nM), replicon 1AY93H
[7] = replicon 1AQ30D, read-out: 1A Q30D IC50
[8] = replicon 1AY93H, read-out: 1A Y93H IC50
[9] = read-out: 1A Q30D IC50, replicon 1AQ30D
[10] = read-out: 1A Y93H IC50, replicon 1AY93H

## COC(=O)NC(C(=O)N1CCCC1c1ncc(-c2cc(F)c3c(c2)OC(c2ccc(C4CC4)s2)n2c-3cc3cc(-c4cnc(C5CC6CC6N5C(=O)C(NC(=O)OC)C5CCOCC5)[nH]4)ccc32)[nH]1)C(C)C (mixture of isomers) [Compound 651]
HCV replicon 1AQ30D; [1]
  IC50: 0.0178 nM
HCV replicon 1B; HCV replicon 1B
  IC50: 1.8 pM
HCV replicon 2B; [2]
  IC50: 0.0081 nM
HCV replicon 1A; HCV replicon 1A
  IC50: 1.3 pM
HCV replicon 1AY93H; [3]
  IC50: 0.0023 nM

## COC(=O)NC(C(=O)N1CCCC1c1ncc(-c2cc(F)c3c(c2)OC(c2cc4c(s2)CC(C)(C)C4)n2c-3cc3cc(-c4cnc(C5CCCN5C(=O)C(NC(=O)OC)C(C)C)[nH]4)ccc32)[nH]1)C(C)C (mixture of isomers) [Compound 846]
HCV replicon 1AQ30D; [1]
  IC50: 0.302 nM
HCV replicon 1B; HCV replicon 1B
  IC50: 2.8 pM
HCV replicon 2B; [2]
  IC50: 0.039 nM
HCV replicon 1A; HCV replicon 1A
  IC50: 2.9 pM
HCV replicon 1AY93H; [3]
  IC50: 0.034 nM

## COC(=O)NC(C(=O)N1CCCC1c1ncc(-c2cc(F)c3c(c2)OC(c2cc4c(s2)CC2(C4)OCCO2)n2c-3cc3cc(-c4cnc(C5CCCN5C(=O)C(NC(=O)OC)C(C)C)[nH]4)ccc32)[nH]1)C(C)C (mixture of isomers) [Compound 847]
HCV replicon 1AQ30D; [1]
  IC50: 1.76 nM
HCV replicon 1B; HCV replicon 1B
  IC50: 5 pM
HCV replicon 2B; [2]
  IC50: 0.312 nM
HCV replicon 1A; HCV replicon 1A
  IC50: 3.8 pM
HCV replicon 1AY93H; [3]
  IC50: 0.214 nM

## COC(=O)N[C@H](C(=O)N1CCC[C@H]1c1ncc(-c2cc(F)c3c(c2)OC(c2ccc(-c4ccc(N=[N+]=[N-])cc4)s2)n2c-3cc3cc(-c4cnc([C@@H]5CCCN5C(=O)[C@@H](NC(=O)OC)C(C)C)[nH]4)ccc32)[nH]1)C(C)C (mixture of isomers) [Compound 264]
HCV replicon 1AQ30D; [4]
  IC50: 0.7 nM
HCV replicon 1B; Hepatitis C virus, replicon 1B
  IC50: 4.3 pM
HCV replicon 2B; [5]
  IC50: 0.19 nM
HCV replicon 1A; Hepatitis C virus, replicon 1A
  IC50: 3.7 pM
HCV replicon 1AY93H; [6]
  IC50: 0.029 nM

## COC(=O)N[C@H](C(=O)N1CCC[C@H]1c1ncc(-c2cc(F)c3c(c2)OC(c2ccc(-c4ccc(I)cc4)s2)n2c-3cc3cc(-c4cnc([C@@H]5CCCN5C(=O)[C@@H](NC(=O)OC)C(C)C)[nH]4)ccc32)[nH]1)C(C)C (mixture of isomers) [Compound 313]
HCV replicon 1AQ30D; [4]
  IC50: 0.19 nM
HCV replicon 1B; Hepatitis C virus, replicon 1B
  IC50: 2.9 pM
HCV replicon 2B; [5]
  IC50: 0.1 nM
HCV replicon 1A; Hepatitis C virus, replicon 1A
  IC50: 3.2 pM
HCV replicon 1AY93H; [6]
  IC50: 0.026 nM

## COC(=O)N[C@H](C(=O)N1CCC[C@H]1c1ncc(-c2cc(F)c3c(c2)OC(c2ccc(C4CC4)s2)n2c-3cc3cc(-c4cnc([C@@H]5CCCN5C(=O)[C@@H](NC(=O)OC)C5CC6(COC6)C5)[nH]4)ccc32)[nH]1)C(C)C (mixture of isomers) [Compound 531]
HCV replicon 1AQ30D; Hepatitis C virus, read-out: 1A Q30D IC50, HCV replicon 1A Q30D
  IC50: 3.98 nM
HCV replicon 1B; Hepatitis C virus, HCV replicon 1B
  IC50: 1300 pM
HCV replicon 2B; Hepatitis C virus, read-out: 2B IC50, HCV replicon 2B
  IC50: 4.32 nM
HCV replicon 1A; Hepatitis C virus, HCV replicon 1A
  IC50: 9.09 pM
HCV replicon 1AY93H; Hepatitis C virus, read-out: 1A Y93H IC50, HCV replicon 1A Y93H
  IC50: 0.912 nM

## CCc1ccc(C2Oc3cc(-c4cnc([C@@H]5CCCN5C(=O)[C@@H](NC(=O)OC)C(C)C)[nH]4)cc(F)c3-c3cc4cc(-c5cnc([C@@H]6CCCN6C(=O)[C@@H](NC(=O)OC)C(C)C)[nH]5)ccc4n32)s1 (single isomer, unassigned) [Compound 3]
HCV replicon 1AQ30D; [4]
  IC50: 50.6 nM
HCV replicon 1B; Hepatitis C virus, replicon 1B
  IC50: 1.2 pM
HCV replicon 2B; [5]
  IC50: 4.45 nM
HCV replicon 1A; Hepatitis C virus, replicon 1A
  IC50: 3.6 pM
HCV replicon 1AY93H; [6]
  IC50: 4.7 nM

## COC(=O)N[C@H](C(=O)N1CCC[C@H]1c1ncc(-c2cc(F)c3c(c2)OC(c2ccc(C4CC4)s2)n2c-3cc3cc(-c4cnc([C@@H]5CCCN5C(=O)[C@@H](NC(=O)OC)C(C)C)[nH]4)ccc32)[nH]1)C(C)C (single isomer, unassigned) [Compound 6]
HCV replicon 1AQ30D; [7]
  IC50: 0.32 nM
HCV replicon 1B; replicon 1B
  IC50: 1.5 pM
HCV replicon 2B; replicon 2B, read-out: 2B IC50
  IC50: 0.028 nM
HCV replicon 1A; replicon 1A
  IC50: 1.9 pM
HCV replicon 1AY93H; [8]
  IC50: 0.011 nM

## COC(=O)N[C@H](C(=O)N1[C@@H]2C[C@@H]2C[C@H]1c1ncc(-c2ccc3c(c2)OC(c2ccc(C4CC4)s2)n2c-3cc3cc(-c4cnc([C@@H]5C[C@H]6C[C@H]6N5C(=O)[C@@H](NC(=O)OC)C(C)C)[nH]4)ccc32)[nH]1)C(C)C (single isomer, unassigned) [Compound 8]
HCV replicon 1AQ30D; [7]
  IC50: 0.47 nM
HCV replicon 1B; replicon 1B
  IC50: 2.7 pM
HCV replicon 2B; replicon 2B, read-out: 2B IC50
  IC50: 0.14 nM
HCV replicon 1A; replicon 1A
  IC50: 17.4 pM
HCV replicon 1AY93H; [8]
  IC50: 0.33 nM

## COC(=O)N[C@H](C(=O)N1CCC[C@H]1c1ncc(-c2cc(F)c3c(c2)OC(c2ccc(C#N)s2)n2c-3cc3cc(-c4cnc([C@@H]5CCCN5C(=O)[C@@H](NC(=O)OC)C(C)C)[nH]4)ccc32)[nH]1)C(C)C (single isomer, unassigned) [Compound 17]
HCV replicon 1AQ30D; [9]
  IC50: 2.91 nM
HCV replicon 1B; Hepatitis C virus, replicon 1B
  IC50: 2.1 pM
HCV replicon 2B; read-out: 2B IC50, replicon 2B
  IC50: 0.54 nM
HCV replicon 1A; Hepatitis C virus, replicon 1A
  IC50: 2.6 pM
HCV replicon 1AY93H; [10]
  IC50: 0.19 nM

## COC(=O)N[C@H](C(=O)N1CCC[C@H]1c1ncc(-c2cc(F)c3c(c2)OC(c2ccc(C#N)s2)n2c-3cc3cc(-c4cnc([C@@H]5CCCN5C(=O)[C@@H](NC(=O)OC)C(C)C)[nH]4)ccc32)[nH]1)C(C)C (single isomer, unassigned) [Compound 18]
HCV replicon 1AQ30D; [9]
  IC50: 66.7 nM
HCV replicon 1B; replicon 1B
  IC50: 3 pM
HCV replicon 2B; read-out: 2B IC50, replicon 2B
  IC50: 3.46 nM
HCV replicon 1A; replicon 1A
  IC50: 2.2 pM
HCV replicon 1AY93H; [10]
  IC50: 3.13 nM

## COC(=O)N[C@H](C(=O)N1CCC[C@H]1c1ncc(-c2cc(F)c3c(c2)OC(c2cc(C4CC4)cs2)n2c-3cc3cc(-c4cnc([C@@H]5CCCN5C(=O)[C@@H](NC(=O)OC)C(C)C)[nH]4)ccc32)[nH]1)C(C)C (single isomer, unassigned) [Compound 23]
HCV replicon 1AQ30D; [9]
  IC50: 1.75 nM
HCV replicon 1B; Hepatitis C virus, replicon 1B
  IC50: 3.9 pM
HCV replicon 2B; read-out: 2B IC50, replicon 2B
  IC50: 0.78 nM
HCV replicon 1A; Hepatitis C virus, replicon 1A
  IC50: 3.2 pM
HCV replicon 1AY93H; [10]
  IC50: 0.24 nM

## COC(=O)N[C@H](C(=O)N1CCC[C@H]1c1ncc(-c2cc(F)c3c(c2)OC(c2cc(C4CC4)cs2)n2c-3cc3cc(-c4cnc([C@@H]5CCCN5C(=O)[C@@H](NC(=O)OC)C(C)C)[nH]4)ccc32)[nH]1)C(C)C (single isomer, unassigned) [Compound 24]
HCV replicon 1AQ30D; [9]
  IC50: 14.9 nM
HCV replicon 1B; replicon 1B
  IC50: 3.1 pM
HCV replicon 2B; read-out: 2B IC50, replicon 2B
  IC50: 2.75 nM
HCV replicon 1A; replicon 1A
  IC50: 2.7 pM
HCV replicon 1AY93H; [10]
  IC50: 1.35 nM

## COC(=O)N[C@H](C(=O)N1CCC[C@H]1c1ncc(-c2cc(F)c3c(c2)OC(c2ccc(C(C)C)s2)n2c-3cc3cc(-c4cnc([C@@H]5CCCN5C(=O)[C@@H](NC(=O)OC)C(C)C)[nH]4)ccc32)[nH]1)C(C)C (single isomer, unassigned) [Compound 35]
HCV replicon 1AQ30D; [4]
  IC50: 11.5 nM
HCV replicon 1B; Hepatitis C virus, replicon 1B
  IC50: 1.4 pM
HCV replicon 2B; [5]
  IC50: 1.43 nM
HCV replicon 1A; Hepatitis C virus, replicon 1A
  IC50: 1.7 pM
HCV replicon 1AY93H; [6]
  IC50: 0.62 nM

## COC(=O)N[C@H](C(=O)N1CCC[C@H]1c1ncc(-c2cc(F)c3c(c2)OC(c2ccc(C(C)C)s2)n2c-3cc3cc(-c4cnc([C@@H]5CCCN5C(=O)[C@@H](NC(=O)OC)C(C)C)[nH]4)ccc32)[nH]1)C(C)C (single isomer, unassigned) [Compound 36]
HCV replicon 1AQ30D; [7]
  IC50: 0.19 nM
HCV replicon 1B; replicon 1B
  IC50: 1.1 pM
HCV replicon 2B; replicon 2B, read-out: 2B IC50
  IC50: 0.053 nM
HCV replicon 1A; replicon 1A
  IC50: 1.7 pM
HCV replicon 1AY93H; [8]
  IC50: 0.006 nM

## COC(=O)NC(C(=O)N1CCC[C@H]1c1ncc(-c2ccc3c(c2)cc2n3C(c3cc(C)c(C)s3)Oc3cc(-c4cnc([C@@H]5CCCN5C(=O)[C@@H](NC(=O)OC)C(C)C)[nH]4)cc(F)c3-2)[nH]1)C(C)(C)F (single isomer, unassigned) [Compound 39]
HCV replicon 1AQ30D; [4]
  IC50: 0.61 nM
HCV replicon 1B; Hepatitis C virus, replicon 1B
  IC50: 1 pM
HCV replicon 2B; [5]
  IC50: 0.45 nM
HCV replicon 1A; replicon 1A
  IC50: 2 pM
HCV replicon 1AY93H; [10]
  IC50: 0.12 nM

## COC(=O)N[C@H](C(=O)N1CCC[C@H]1c1ncc(-c2cc(F)c3c(c2)OC(c2ccc(CCF)s2)n2c-3cc3cc(-c4cnc([C@@H]5CCCN5C(=O)[C@@H](NC(=O)OC)C(C)C)[nH]4)ccc32)[nH]1)C(C)C (single isomer, unassigned) [Compound 44]
HCV replicon 1AQ30D; [4]
  IC50: 0.54 nM
HCV replicon 1B; Hepatitis C virus, replicon 1B
  IC50: 1.2 pM
HCV replicon 2B; read-out: 2B IC50, replicon 2B
  IC50: 0.1 nM
HCV replicon 1A; replicon 1A
  IC50: 1.5 pM
HCV replicon 1AY93H; [10]
  IC50: 0.012 nM

## COC(=O)N[C@H](C(=O)N1CCC[C@H]1c1ncc(-c2cc(F)c3c(c2)OC(c2ccc(C(F)F)s2)n2c-3cc3cc(-c4cnc([C@@H]5CCCN5C(=O)[C@@H](NC(=O)OC)C(C)C)[nH]4)ccc32)[nH]1)C(C)C (single isomer, unassigned) [Compound 45]
HCV replicon 1AQ30D; [7]
  IC50: 0.37 nM
HCV replicon 1B; replicon 1B
  IC50: 1.1 pM
HCV replicon 2B; replicon 2B, read-out: 2B IC50
  IC50: 0.044 nM
HCV replicon 1A; replicon 1A
  IC50: 1.1 pM
HCV replicon 1AY93H; [8]
  IC50: 0.01 nM
